Consider two molecules from article PMC5808567 (Journal of medicinal chemistry, 2018).

Series [1] is described as follows: Metal chelation by UV spectroscopy, Fe3+. The format is physicochemical. The conditions noted are these: 100 µM E-3a, 10 mM ammonium acetate pH 7.0, anaerobic, metal 100 µM-5 mM.
Series [2] has as its system normal mobilized peripheral blood progenitor cells. The conditions noted are these: cited from earlier work.
The subject of series [3] is HCT116 and MDA-MB-231 cell lines. Briefly: Growth inhibition assay, both cancer cell lines. The format is cell-based. The conditions noted are these: Homo sapiens, 72 h, read-out: growth inhibition IC50.

In the case of `O=C(N/N=C/c1c(O)ccc2ccccc12)c1ccccc1O` [E-3a, 2-hydroxy-N'-((2-hydroxynaphthalen-1-yl)methylene)benzohydrazide], the “chelation of Fe^3+” value in series [1] is reported as “does not chelate Fe^3+ ions”. Also, the “cytotoxicity against normal cells” value in series [2] was “little cytotoxicity”.

Consider `Nc1ccn([C@@H]2O[C@H](CO)[C@@H](O)C2(F)F)c(=O)n1` [gemcitabine], for which the IC50 in series [3] is 30 to 100 nM.

The IC50 is the concentration that gives 50% inhibition.
